This note sets out measurements from a melting point compilation (Tetko et al.; mined from patent text by program, amines drawn as free bases though some values may be those of a salt).

Molecules are shown by their SMILES. Bounds are passed on as bounds.

`O=S(Cc1ccccc1NC1CCCC1)c1nc2ncccc2[nH]1` (centres undefined) displayed a melting point of 134 °C.
The molecule `CS(=O)(=O)c1cccc(C(=O)O)c1O` returned a melting point of 180 °C.
Take `COc1ccc(C(O)CNC(C)C)s1` (centres undefined): the melting point amounted to 81 °C.
As to `CCC(O)(CC)c1ccc(-c2cccc(COc3ccc(CO)c(CO)c3)c2)c(C)c1`, the melting point is 87 °C.
`NCCCP(=O)(O)CC(O)CN1C(=O)c2ccccc2C1=O` (centres undefined) had a melting point of 268 to 271 °C.
In turn, `CC(C)(C)OC(=O)Nc1ccc(-c2ccoc2)cc1[N+](=O)[O-]` had a melting point of 105 to 110 °C.
`Clc1ccc(CNc2nc(Cl)cc(Cl)n2)cc1` came in with a melting point of 154 to 157 °C.
The molecule `CS(=O)(=O)c1ccc(C(=O)O)c(Cl)c1CC#N` showed a melting point of 169 to 172 °C.
In the case of `CO[C@@H]1CN(c2ccc3c(=O)c(C(=O)O)cn(-c4nccs4)c3n2)C[C@H]1NCC(=O)OC(C)(C)C` (relative stereo), the melting point was in the range of 185 to 188 °C.
Take `COc1c([N+](=O)[O-])cc(Br)c2c1C(=CC#N)CC2`: the melting point fell in the range of 156 to 158 °C.
Turning to `COc1cc(-c2ccc(C)cc2)cc2oc(=O)c(C)c(C)c12`, the melting point came out at 123 °C.
Under `Cc1ccc(C(=O)Nc2ccc(CN3CCN(C)CC3)cc2)cc1Nc1nccc(-c2cccnc2)n1` stands 153 to 155 °C.
In turn, `O=C(Nc1cccc2c1C(=O)c1c-2n[nH]c1-c1ccc(C(=O)NN2CCCC2)s1)NN1CCOCC1` returned a melting point of 213 to 215 °C.
In turn, `Cc1c(C)c2c(c(C)c1C=O)CC(C)(C)C2` gave a melting point of 61 to 62 °C.
In turn, `O=CNCC1CCCc2cc(NS(=O)(=O)c3cccc(F)c3)ccc21` (centres undefined) gave a melting point of 143 to 144 °C.
In turn, `CCOC(=O)C(CNC(=O)c1ccccc1)C(=O)C(F)(F)F` (centres undefined) returned a melting point of 85 to 88 °C.
Take `CCCCCCCCCCCCCCCCCCOc1cc(N)cc(OCCCCC(=O)OC)c1`: the melting point lay within 57 to 59 °C.
As to `CC(C)NCC(O)COc1cccnc1` (centres undefined), the melting point was 84 to 87 °C.
Molecule `O=C(NO)c1ccc2c(c1)CN(C(=O)OCc1cccnc1)C2` returned a melting point of 196 to 199 °C.
Under `COc1nc(NC(=O)Nc2ccccc2OC)nc(N(CCC(=O)O)Cc2cccc(C)c2)n1` stands 160 to 162 °C.
On to `COc1cccc(C(=O)C(=NN)c2cccc(OC)c2)c1`, for which the melting point fell in the range of 109 to 110 °C.
For `O=C1c2ccccc2CN1c1ccc2c(c1)OCCO2`, the melting point lay within 170 to 176 °C.
Under `O=C1N(Cc2cccc(OC(F)(F)F)c2)c2ccccc2C12COc1cc3c(cc12)OCO3` (centres undefined) stands 88 to 91 °C; under `CC(=O)OCCN1CCNC1=Nc1ccccc1N1CCOCC1`, 89 to 91 °C; under `C[C@@H](Cn1ncc2ccc3c(c21)O[C@@H](CO)CO3)NC(=O)OCc1ccccc1`, 116 to 117 °C.
As to `O=c1[nH][nH]c(=O)c2c(O)c(-c3ccccc3)ncc12`, the melting point is over 300 °C.
Under `CCCn1c(=O)c2c(nc(/C=C/c3ccco3)n2C)n(CCC)c1=O` stands 161 to 162 °C; under `CN1CCN(Nc2cc(Cl)ccc2[N+](=O)[O-])CC1`, 108 °C.
Regarding `Cc1nc(N2CCN(C)CC2)nc(N)c1-c1cc(Cl)cc(Cl)c1`, the melting point fell in the range of 164 to 166 °C.
In turn, `CCCOc1ccc(COCC)cc1-c1nc2c(CCC)nn(C)c2c(=O)[nH]1` returned a melting point of 89 to 90 °C.
In turn, `COC(=O)c1ccc(OC(=O)c2ccccc2C(=O)Oc2ccc(C(=O)OC)cc2)cc1` had a melting point of 123 to 125 °C.
Take `N#Cc1nc(N)nc(N)c1-c1ccc(Cl)cc1Cl`: the melting point was found to be 249 °C.
Under `Cc1sc([Si](C)(C)C)cc1C1=C(c2cc([Si](C)(C)C)sc2C)C(F)(F)C(F)(F)C1(F)F` stands 91.4 °C.
For `CC(C)NC(=O)OCC(=O)c1ccc(C2CCCCC2)cc1`, the melting point lay in the range of 111 to 112 °C.
The molecule `CCCc1nc(OC)c(NC(=S)N2CCN(c3cccc(O)c3)CC2)cc1C` returned a melting point of 160 to 162 °C.
Under `COC1=NS(=O)N=C1NCCCCc1ncc(Br)cc1N` (centres undefined) stands 118 to 120 °C.
Under `COC(=O)c1cc(C)c(-c2cccc(OCc3ccc(COC(=O)c4ccccc4)c(COC(=O)c4ccccc4)c3)c2C)c(C)c1` stands 131 to 132 °C.
Molecule `CSC(Cc1ccc(OCCN(C)c2nc3ccccc3o2)cc1)C(=O)O` (centres undefined) showed a melting point of 140 to 141 °C.
Under `CC(C)n1cc(C=O)c(-c2ccc([N+](=O)[O-])o2)n1` stands 168 to 170 °C; under `COc1ccc2c(n1)NC(C)(C)C(=O)N2`, 194 to 195 °C.
As for `COc1ccc2ccc(C(=O)NCc3ccccc3)c(OC(C)C)c2c1`, the melting point is 88 to 90 °C.
As to `CNc1ncc([N+](=O)[O-])c(Cl)n1`, the melting point was 172 to 173 °C.
Under `O=C(O)c1ccc(OCCc2c(CCNS(=O)(=O)Cc3ccccc3Cl)n(C(c3ccccc3)c3ccccc3)c3ccc(Cl)cc23)cc1F` stands 132 to 135 °C; under `CC1(C)OC(c2ccc(S(C)(=O)=O)cc2)=C(c2ccc(O)cc2)C1=O`, 150 to 152 °C; under `CC1(C)NC(=O)c2cc(OCCBr)ccc2O1`, 190 to 195 °C.
Under `CCC(OC(=O)c1ccccc1)c1nc2c(C(F)(F)F)cccc2c(O)c1C(=O)Nc1nccs1` (centres undefined) stands 230 °C; under `Oc1ccc(-c2cc3c(O)cc(O)cc3o2)cc1`, 216 to 217 °C.
In turn, `Cn1cc(C(F)(F)F)ccc1=O` returned a melting point of 125 to 129 °C.
Take `CCCCCCCCCCC1(CCCCCCCCCC)c2cc(Br)ccc2-c2ccc(Br)cc21`: the melting point lay in the range of 38.1 to 38.4 °C.
For `CC(C)CN(C=Nc1nnnc2c1ncn2C1CC(O)C(CO)O1)CC(C)C` (centres undefined), the melting point is 138 to 140 °C.
Consider `COC(=O)C=Cc1ccc(OCCCCl)cc1`, for which the melting point lay within 58 to 59 °C.
`Oc1ccc(Cc2cnc3c(-c4cc(-c5ccccc5)cs4)cnn3c2O)cc1` returned a melting point of 287 to 293 °C.
The molecule `CCCCC(CC)C(=O)Nc1ccc2cnn(Cc3ccc(C(=O)OC)cc3OC)c2c1` (centres undefined) had a melting point of 136 °C.
Take `Cc1cc(SC(C)C)c(NC(=O)CCCCCCSc2nc3ccccc3o2)c(SC(C)C)n1`: the melting point lay in the range of 76 to 78 °C.
The molecule `Nc1cc(C(=O)Cn2c(-c3nonc3N)nc3ccccc32)ccc1Cl` yielded a melting point of 228 to 230 °C.
Regarding `NC(=O)c1ccc(I)c([N+](=O)[O-])c1`, the melting point is 152 to 155 °C.
`CCCc1nc(C)cn1-c1nc(OC)ccc1[N+](=O)[O-]`: the melting point fell in the range of 96 to 103 °C.
Under `O=c1cc(O)c2cccc([N+](=O)[O-])c2o1` stands 242 to 245 °C.
The molecule `CCCN(CCC)S(=O)(=O)c1cccc(C(=O)Nc2ccc(Br)cc2)c1` gave a melting point of 160 to 162 °C.
Under `CCOC(=O)c1ccc(S(=O)(=O)C(Br)(Br)Br)cc1` stands 134 to 136 °C.
`CCOC(=O)c1nn(-c2ccccc2)c(=O)c2c1c1ccc(Cl)cc1n2C` showed a melting point of 216 to 218 °C.
As for `CC1CCN(c2c(-c3c(F)cc(F)cc3F)c(Cl)nc3nc(S)nn23)CC1`, the melting point turned out to be 194 °C.
As for `O=c1c2cccnc2c(-c2cccc(Cl)c2)cn1CC1CC1`, the melting point is 120 to 122 °C.
`COc1cc(Nc2nccc(-c3cccc(O)c3)n2)cc(OC)c1OC`: the melting point lay in the range of 191 to 192 °C.
The molecule `OC1CN(Cc2nc(-c3ccc4c(c3)Nc3ccccc3S4)cs2)C1` came in with a melting point of 240 to 242 °C.
`CC(=O)Nc1cc2cc([N+](=O)[O-])ccc2oc1=O` yielded a melting point of 277 to 279 °C.
In the case of `CC(=O)OCc1c(Br)cccc1[N+](=O)[O-]`, the melting point lay within 36 to 37 °C.
In the case of `Clc1cccc(Oc2ccc(OCn3cnc(Cl)c3Cl)cc2)n1`, the melting point was in the range of 94 to 98 °C.
Take `C#CCc1c(C)nc2c(OCc3c(C)cccc3N)cccn12`: the melting point fell in the range of 144 to 146 °C.
With `Clc1nc(Cl)c2ncn(C3CC3)c2n1`, the melting point was 121 to 124 °C.
Consider `CCCCC(=Nc1sc(Cl)cc1C(=O)NCCC)OC`, for which the melting point lay within 110 to 112 °C.
Under `c1ccc(OCc2ccsc2)cc1` stands 49 to 50 °C; under `COc1ccc(Nc2nc(=O)cc(N)n2-c2ccccc2)cc1`, 213 to 216 °C; under `Cc1noc(NS(=O)(=O)c2ccccc2-c2ccc(-c3ncco3)cc2Cc2ncco2)c1C`, 88 to 95 °C.
Under `CC(C)c1cc(C(C)(C)CCP(=O)(O)O)cc(C(C)C)c1O` stands 179 to 182 °C; under `Cn1cc(C(=O)NCc2ccc(F)cc2)c(=O)c2cc(CN3CCOCC3)sc21`, 214 to 216 °C; under `CCCN1C(=O)C(C(=O)Nc2ccc(Cl)cc2)S(=O)(=O)c2ccccc21` (centres undefined), 189 to 190 °C.
`O=C(C1(F)CC1Cc1ccc(Cl)cc1)C1(F)CC1Cc1ccc(Cl)cc1` (centres undefined) gave a melting point of 53 to 54 °C.
`Cc1c(CC2CCc3c(c4ccccc4n3CC3CCCC3)C2=O)ncn1C(c1ccccc1)(c1ccccc1)c1ccccc1` (centres undefined) yielded a melting point of 177 to 179 °C.
Turning to `Cc1nc2cc3c(cc2s1)C1(CO3)C(=O)N(Cc2ccccn2)c2ccccc21` (centres undefined), the melting point lay within 249 to 250 °C.
In turn, `CN1CCN(c2nc(Oc3ccccc3)c3ccccc3n2)CC1` returned a melting point of 102 to 103 °C.
As for `CCOC(=O)CCCCOc1ccc2c(c1)CC1CC(=O)NC1=N2` (centres undefined), the melting point came to 180 °C.
`N#CC(c1ccc(Cl)cc1)N(Cc1ccccc1)C(=O)C(F)(F)F` (centres undefined): the melting point is 131 to 132 °C.
With `COc1cc2c(c3c1OC(C)(C)C3)C(c1ccnc(Cl)c1)=NC(C)(C)C2`, the melting point is 139 to 140 °C.
The molecule `CCOC(=O)c1cn2ccncc2n1` yielded a melting point of 179 °C.
`CCc1nnc(Cc2ccc(NC(=O)/C=C/c3cnn(C)c3-c3ccc(F)cc3)cc2)o1`: the melting point was 164 to 165 °C.
`CC(Cn1ncc2ccc(OCc3ccccc3)cc21)O[Si](C)(C)C(C)(C)C` (centres undefined) had a melting point of 56 to 58 °C.
The molecule `CC(C)CCC(O)C(CC1CCCCC1)NC(=O)C(Cc1c[nH]cn1)N(C)C(=O)C(Cc1ccccc1)OC(=O)N(C)CCN(C)C(=O)C(C)C` (centres undefined) displayed a melting point of 68 to 72 °C.
The molecule `C=CCn1c(C)nc2c3c(c(C(=O)OC)cc21)CCC1(Cc2ccccc2C1)N3` registered a melting point of 142 °C.

Broadly, the melting point is the temperature, or range, at which the solid turns liquid.
